Assay results: ChEMBL document CHEMBL3102853, “Carbonic anhydrase inhibitors. Synthesis, and molecular structure of novel series N-substituted N'-(2-arylmethylthio-4-chloro-5-methylbenzenesulfonyl)guanidines and their inhibition of human cytosolic isozymes I and II and the transmembrane tumor-associated isozymes IX and XII” (Eur J Med Chem, 2014)
Active and inactive are the calls of the source. The calls are words filed in the database; no cut-off is given here.

Experiments:
Assay type in all cases: functional
MOLT-4 = assay: Cytotoxicity against human MOLT4 cells at 10 uM; conditions: read-out: GI
HL-60(TB) = assay: Cytotoxicity against human HL-60(TB) cells at 10 uM; conditions: read-out: GI
SK-MEL-2 = assay: Cytotoxicity against human SK-MEL-2 cells at 10 uM; conditions: read-out: GI
UACC-62 = assay: Cytotoxicity against human UACC62 cells at 10 uM; conditions: read-out: GI
SF-268 = assay: Cytotoxicity against human SF268 cells at 10 uM; conditions: read-out: GI
LOX IMVI = assay: Cytotoxicity against human LOXIMVI cells at 10 uM; conditions: read-out: GI
K562 = assay: Cytotoxicity against human K562 cells at 10 uM; conditions: read-out: GI
HT-29 = assay: Cytotoxicity against human HT-29 cells at 10 uM; conditions: for inhibition of growth at 10 µM: read-out: GI
SR = assay: Cytotoxicity against human SR cells at 10 uM; conditions: read-out: GI
NCI-H460 = assay: Cytotoxicity against human NCI-H460 cells at 10 uM; conditions: read-out: GI
A549 = assay: Cytotoxicity against human A549 cells at 10 uM; conditions: read-out: GI
MDA-MB-468 = assay: Cytotoxicity against human MDA-MB-468 cells at 10 uM; conditions: read-out: GI
[1] = Cytotoxicity against human Hs 578T cells at 10 uM; conditions: read-out: GI
RPMI-8226 = assay: Cytotoxicity against human RPMI8226 cells at 10 uM; conditions: read-out: GI
OVCAR-3 = assay: Cytotoxicity against human OVCAR3 cells at 10 uM; conditions: for inhibition of growth at 10 µM: read-out: GI
SNB-75 = assay: Cytotoxicity against human SNB75 cells at 10 uM; conditions: read-out: GI
HOP-92 = assay: Cytotoxicity against human HOP92 cells at 10 uM; conditions: read-out: GI
T47D = assay: Cytotoxicity against human T47D cells at 10 uM; conditions: read-out: GI
SW-620 = assay: Cytotoxicity against human SW620 cells at 10 uM; conditions: for inhibition of growth at 10 µM: read-out: GI
KM12 = assay: Cytotoxicity against human KM12 cells at 10 uM; conditions: read-out: GI
A498 = assay: Cytotoxicity against human A498 cells at 10 uM; conditions: read-out: GI
DU-145 = assay: Cytotoxicity against human DU145 cells at 10 uM; conditions: for inhibition of growth at 10 µM: read-out: GI
NCI/ADR-RES = assay: Cytotoxicity against human NCI-ADR-RES cells at 10 uM
PC-3 = assay: Cytotoxicity against human PC3 cells at 10 uM; conditions: read-out: GI
MCF7 = assay: Cytotoxicity against human MCF7 cells at 10 uM; conditions: read-out: GI

Compound | inhibition of growth at 10 µM (MOLT-4) | inhibition of growth at 10 µM (HL-60(TB)) | inhibition of growth at 10 µM (SK-MEL-2) | inhibition of growth at 10 µM (UACC-62) | inhibition of growth at 10 µM (SF-268) | inhibition of growth at 10 µM (LOX IMVI) | inhibition of growth at 10 µM (K562) | inhibition of growth at 10 µM (SR) | inhibition of growth at 10 µM (NCI-H460) | inhibition of growth at 10 µM (A549) | inhibition of growth at 10 µM (MDA-MB-468) | inhibition of growth at 10 µM [1] | inhibition of growth at 10 µM (RPMI-8226) | inhibition of growth at 10 µM (SNB-75) | inhibition of growth at 10 µM (HOP-92) | inhibition of growth at 10 µM (T47D) | inhibition of growth at 10 µM (KM12) | inhibition of growth at 10 µM (A498) | growth inhibition (GI) (NCI/ADR-RES) | inhibition of growth at 10 µM (PC-3) | also measured
Cc1cc(S(=O)(=O)NC(=N)NCc2ccc(S(N)(=O)=O)cc2)c(SCc2cc3c(cc2Cl)OCO3)cc1Cl | 50% | 58% | 38% | 56% | 28% | 28% | 57% | 50% | 20% | 30% | 62% | 29% | 57% | 42% | 57% | 48% | 38% | 10% | inactive | 54% | inhibition of growth at 10 µM (HT-29): 15%; inhibition of growth at 10 µM (OVCAR-3): 41%; inhibition of growth at 10 µM (SW-620): 8%; inhibition of growth at 10 µM (DU-145): 2%; inhibition of growth at 10 µM (MCF7): 60%
Cc1cc(S(=O)(=O)NC(=N)NCc2ccc(S(N)(=O)=O)cc2)c(SCc2ccccc2)cc1Cl | 31% | 28% | 32% | 49% | 16% | 12% | 34% | 29% | 10% | 21% | 45% | 44% | 41% | 43% | 63% | 35% | 16% | 25% | inactive | 36% | growth inhibition (GI) (HT-29): inactive; inhibition of growth at 10 µM (OVCAR-3): 24%; inhibition of growth at 10 µM (SW-620): 4%; growth inhibition (GI) (DU-145): inactive; inhibition of growth at 10 µM (MCF7): 37%
Cc1cc(S(=O)(=O)NC(=N)Nc2cccc(S(N)(=O)=O)c2)c(SCc2ccc(C(F)(F)F)cc2)cc1Cl | 51% | 33% | 27% | 35% | 19% | 20% | 48% | 54% | 19% | 36% | 26% | 13% | 39% | 53% | 37% | 35% | 34% | 13% | inactive | 68% | inhibition of growth at 10 µM (HT-29): 20%; inhibition of growth at 10 µM (OVCAR-3): 33%; inhibition of growth at 10 µM (SW-620): 5%; inhibition of growth at 10 µM (DU-145): 6%; inhibition of growth at 10 µM (MCF7): 51%
Cc1cc(S(=O)(=O)NC(=N)Nc2cccc(S(N)(=O)=O)c2)c(SCc2ccccc2)cc1Cl | 34% | 16% | 14% | 30% | 12% | 15% | 22% | 15% | 3% | 16% | 32% | 17% | 23% | 35% | 46% | 13% | 5% | 16% | inactive | 45% | inhibition of growth at 10 µM (HT-29): 8%; growth inhibition (GI) (OVCAR-3): inactive; growth inhibition (GI) (SW-620): inactive; growth inhibition (GI) (DU-145): inactive; inhibition of growth at 10 µM (MCF7): 21%
